Three substances from patent US8865864B2, “Mutant epidermal growth factor polypeptides with improved biological activity and methods of their making and use” (The Board of Trustees of the Leland Stanford Junior …, priority 2011, dated 2014) can be followed below.

In one test the test system is BJ-5ta cells. Nature of the test: Cell proliferation assay ([3H]TdR incorporation). The format is cell-based, human. To be noted: for level of cell proliferation ([3H]TdR incorporation): 1 nM dose, CFPS-produced protein.
The next test relates to BALB/3T3 cells. Nature of the test: Chemotactic cell migration assay, BALB/3T3. The format is cell-based. The following applies: 0.3 nM, 3-hour exposure.
Test [1] relates to ErbB receptors expressed on the surface of CHO cells. The test is described as follows: EGF ligand specificity on transfected CHO cells. To be noted: 25 nM, 10 min, CHO cells individually expressing ErbB receptors. The format is binding.
Description: The binding specificities of wild-type and mutant EGF were determined by flow cytometry using CHO cells transfected with EGFR or other ErbB receptor family members. […] Cells were labeled with a FITC-conjugated antibody directed against the N-terminal FLAG epitope tag on EGF and analyzed by flow cytometry.
For another test, the system named is NR6WT cells. Nature of the test: Chemotactic cell migration assay, NR6WT. The following applies: 0.3 nM, 3-hour exposure. The format is cell-based, murine.
For another test, the system named is hEGFR and mEGFR. Nature of the test: SPR pH titration binding (Example 3). To be noted: 200 nM ligand, pH 5.0 to 8.5. On the set-up: species or system human and murine.
The subject of a further test is BJ5ta cells. The test is described as follows: Chemotactic cell migration assay, BJ-5ta. The format is cell-based, human. The following applies: 0.3 nM, 3-hour exposure.

Description for BALB/3T3 cells: (§1) Costar transwells (8.0 μm pores, 6.5 mm diameter) were coated on both sides with bovine fibronectin (10 μg/ml) overnight at 4° C. washed 3 times with PBS, and then blocked with 1% bovine serum albumin (BSA) in PBS at 37° C. for 1 h prior to usage. […] Non-migrated cells were removed by wiping the upper side of the membrane with a cotton swab. The transwells were washed three times with PBS, fixed with methanol, and stained with modified Giemsa. Pictures were taken of the migrated-stained cells in nine random high powered fields (20×) using light microscopy, and the number of migrated cells were counted.
Description for BJ-5ta cells: BJ-5ta cells, human immortalized foreskin fibroblast cells that express human EGFR (American Type Culture Collection), were plated in 96-well plates at a density of 2500 cells per well in 100 μl of full medium [Dulbecco's modified Eagle's medium (DMEM)] supplemented with 1% penicillin/streptomycin (Pen/Strep), 1% I-glutamine, 1% sodium pyruvate, 20% M199, and 10% fetal bovine serum. All cell culture reagents were from invitrogen. After 24 h, cells were serum-starved for 48 h in serum-free medium (DMEM supplemented with 1% Pen/Strep, 1% I-glutamine, 1% sodium pyruvate, and 20% M199). The medium was then replaced with 100 μl of serum-free medium containing the indicated concentrations of treatment protein.
When indicated, the standard serum-free medium used during protein treatment was replaced with advanced media (Advanced DMEM supplemented with 1% Pen/Strep, 1% I-glutamine, 1% sodium pyruvate, and 20% M199) or supplemented with human recombinant insulin. […]
[3H]TdR incorporation was measured 24 h later by freezing the plates at −80° C. overnight, thawing the plates at room temperature, harvesting the cells onto glass fiber filter mats (Perkin Elmer) with a Mach IIIM Harvester (Tomtec), and performing scintillation counting with a Wallac MicroBeta Counter (Perkin Elmer).
BJ5ta cells were plated in 96-well plates at densities of 2,500 cells/well (BJ5ta), in 100 μl of complete medium. […] 3H-TdR incorporation was measured 24 h later by freezing the cells overnight at −80° C. and harvesting the cells onto glass fiber filtermats (Perkin Elmer) using a Mach IIIM harvester (Tomtec). […]
BJ-5ta cells were plated in 96-well plates at a density of 5,000 cells/well and 2,500 cells/well, respectively, in 100 μl of medium. […] 3H-TdR incorporation was measured 24 h later by harvesting the cells onto glass fiber filtermats (Perkin Elmer, Waltham, Mass.) using a Mach IIIM harvester (Tomtec, Hamden, Conn.) and performing scintillation counting with a Wallac MicroBeta (Perkin Elmer, Waltham, Mass.).
Description for BJ5ta cells: Non-migrated cells were removed by wiping the upper side of the membrane with a cotton swab. The transwells were washed three times with PBS, fixed with methanol, and stained with modified Giemsa. Pictures were taken of the migrated stained cells in nine random high-powered fields (20×) using light microscopy, and the number of migrated cells was counted.
Costar transwells (Corning 3422, 8.0 μm pores, 6.5 mm diameter) were coated on both sides with 10 μg/ml bovine fibronectin (Sigma F1141-2MG, 1 mg/ml) overnight at 4° C. in buffer (50 mM Tris-HCl, 500 mM NaCl, pH 7.5), Transwells were then washed 3 times with PBS, and then blocked with PBS with 1% BSA (PBS/BSA) at 37° C. for 1 hr prior to usage. […] Non-migrated cells were removed by wiping the upper side of the membrane with Q-tips. […] Pictures were taken of the migrated-stained cells in nine random high-powered fields (20×) using light microscopy, and the number of migrated cells was counted using ImageJ software.
Costar transwells (8.0 μm pores, 6.5 mm diameter) were coated on both sides with bovine fibronectin (10 μg/ml) overnight at 4° C. washed 3 times with PBS, and then blocked with 1% bovine serum albumin (BSA) in PBS at 37° C. for 1 h prior to usage. […] Pictures were taken of the migrated-stained cells in nine random high powered fields (20×) using light microscopy, and the number of migrated cells were counted.
Description for NR6WT cells: as §1
Description for hEGFR and mEGFR: pH titration binding experiments were performed at 25° C. in degassed buffer at various pHs ranging from 5.0 to 8.5. Wild-type and mutant EGF were diluted to 200 nM in pH buffer and flowed over the surface of the hEGFR sensorchip at a flow rate of 20 μL/min for 2 min. The hEGFR and mEGFR surfaces were regenerated as noted above. pH titration binding experiments were performed in triplicate at each pH over flow cells one and two for bath the hEGFR and mEGFR surfaces. The steady-state binding response was measured for each growth factor at the association phase plateau of the sensorgram.

“L47D: EGF point mutant, leucine 47 substituted with aspartic acid, used in mock libraries (NSDSECPLSHDGYCLHDGVCMYIEALDKYACNCVVGYIGERCQYRDDKWWELR; not fully specified; Epidermal growth factor; UniProt P01133 971-1023, looked up, variant L47D)”: in the test on BJ-5ta cells, the “level of cell proliferation ([3H]TdR incorporation)” value is given as “intermediate”.
As for “L47R: EGF point mutant, leucine 47 substituted with arginine, used in mock libraries (NSDSECPLSHDGYCLHDGVCMYIEALDKYACNCVVGYIGERCQYRDRKWWELR; not fully specified; Epidermal growth factor; UniProt P01133 971-1023, looked up, variant L47R)”, the “level of cell proliferation ([3H]TdR incorporation)” value with BJ-5ta cells is listed as “low”.
As to “m123: high-affinity mutant EGF SEQ ID NO:17: NSYSECPPSYDGYCLHDGVCRYIEALDSYACNCVVGYAGERCQYRDLRWWGRR”, in the test with BALB/3T3 cells, the “chemotactic migration compared to wild-type EGF, BALB/3T3” value is “increased chemotactic migration”. Further, the “cell proliferation compared to wild-type EGF” value in the test on BJ-5ta cells (varying concentrations, 72 hours) was “no significant changes in the levels of cell proliferation”. The ErbB binding specificity result in test [1] was “bound specifically to EGFR but not to other ErbB receptor family members”. Besides, the “chemotactic migration compared to wild-type EGF, NR6WT” value in the test on NR6WT cells was “increased chemotactic migration”. The “pH sensitivity of steady-state binding to EGFR” value with hEGFR and mEGFR is “much less so”. The “chemotactic migration compared to wild-type EGF, BJ-5ta” value in the test on BJ5ta cells is reported as “increased chemotactic migration”.
